ChEMBL document CHEMBL4118281, “Azoalkyl ether imidazo[2,1-b]benzothiazoles as potentially antimicrobial agents with novel structural skeleton” (2018)
Converted amounts (≈) assume the structure as drawn. The source made the active and inactive calls. The calls are words filed in the database; no cut-off is given here.

How the values were obtained:
[1] = tested on: Escherichia coli; test: Antibacterial activity against Escherichia coli JM109 after 24 hrs by micro broth dilution method; format: functional; conditions: JM109, 24 h
[2] = tested on: Staphylococcus aureus; test: Bactericidal activity against methicillin-resistant Staphylococcus aureus N315 assessed as reduction in bacterial load at 4 times MIC after 200 mins by time kill assay (reference value: 9.84 log10CFU/ml); format: functional
[3] = tested on: Calf thymus DNA; test: Binding affinity to calf thymus DNA assessed as DNA intercalation by UV-Visible spectroscopic method; format: nucleic-acid assay; conditions: Bos taurus
[4] = tested on: Escherichia coli; test: Antibacterial activity against Escherichia coli DH52 after 24 hrs by micro broth dilution method; format: functional; conditions: DH52, 24 h
[5] = tested on: Staphylococcus aureus; test: Potency index, ratio of chloromycin MIC to compound MIC for methicillin-resistant Staphylococcus aureus N315; format: functional
[6] = tested on: Pichia norvegensis; test: Antifungal activity against Candida mycoderma after 24 hrs by two fold serial dilution based spectrophotometric analysis; format: functional
[7] = tested on: Staphylococcus aureus; test: Antibacterial activity against methicillin-resistant Staphylococcus aureus N315 after 1 passage; format: functional
[8] = tested on: Micrococcus luteus; test: Antibacterial activity against Micrococcus luteus ATCC 4698 after 24 hrs by micro broth dilution method; format: functional; conditions: NCTC 2665, 24 h
[9] = tested on: Staphylococcus aureus; test: Potency index, ratio of norfloxacin MIC to compound MIC for methicillin-resistant Staphylococcus aureus N315; format: functional
[10] = tested on: Salmonella typhi; test: Antibacterial activity against Bacillus typhi after 24 hrs by micro broth dilution method; format: functional, Salmonella enterica subsp. enterica serovar Typhi; conditions: Salmonella enterica
[11] = tested on: Staphylococcus aureus; test: Bactericidal activity against methicillin-resistant Staphylococcus aureus N315 assessed as reduction in bacterial load at 4 times MIC after 140 mins by time kill assay (reference value: 6.413 log10CFU/ml); format: functional
[12] = tested on: Shigella dysenteriae; test: Antibacterial activity against Shigella dysenteriae after 24 hrs by micro broth dilution method; format: functional
[13] = tested on: Calf thymus DNA; test: Inhibition of neutral red binding to calf thymus DNA by UV-Visible spectroscopic method; format: nucleic-acid assay; conditions: Bos taurus
[14] = tested on: Staphylococcus aureus; test: Antibacterial activity against methicillin-resistant Staphylococcus aureus N315 after 2 passages; format: functional
[15] = tested on: Bacillus subtilis; test: Antibacterial activity against Bacillus subtilis after 24 hrs by micro broth dilution method; format: functional
[16] = tested on: Staphylococcus aureus; test: Bactericidal activity against methicillin-resistant Staphylococcus aureus N315 assessed as reduction in bacterial load at 4 times MIC after 120 mins by time kill assay (reference value: 5.77 log10CFU/ml); format: functional
[17] = tested on: Staphylococcus aureus; test: Antibacterial activity against methicillin-resistant Staphylococcus aureus N315 after 5 passages; format: functional
[18] = tested on: Candida albicans; test: Antifungal activity against Candida albicans after 24 hrs by two fold serial dilution based spectrophotometric analysis; format: functional
[19] = tested on: Staphylococcus aureus; test: Antibacterial activity against Staphylococcus aureus ATCC 25923 after 24 hrs by micro broth dilution method; format: functional; conditions: ATCC 25923, 24 h
[20] = tested on: Staphylococcus aureus; test: Bactericidal activity against methicillin-resistant Staphylococcus aureus N315 assessed as reduction in bacterial load at 4 times MIC after 240 mins by time kill assay (reference value: 10.42 log10CFU/ml); format: functional
[21] = tested on: Staphylococcus aureus; test: Bactericidal activity against methicillin-resistant Staphylococcus aureus N315 assessed as reduction in bacterial load at 4 times MIC after 160 mins by time kill assay (reference value: 7.47 log10CFU/ml); format: functional
[22] = tested on: Staphylococcus aureus; test: Antibacterial activity against methicillin-resistant Staphylococcus aureus N315 after 3 passages; format: functional
[23] = tested on: Staphylococcus aureus; test: Antibacterial activity against methicillin-resistant Staphylococcus aureus N315 after 8 passages; format: functional
[24] = tested on: Staphylococcus aureus; test: Antibacterial activity against methicillin-resistant Staphylococcus aureus N315 after 24 hrs by micro broth dilution method; format: functional; conditions: N315, 24 h
[25] = tested on: Pseudomonas aeruginosa; test: Antibacterial activity against Pseudomonas aeruginosa after 24 hrs by micro broth dilution method; format: functional
[26] = tested on: Staphylococcus aureus; test: Bactericidal activity against methicillin-resistant Staphylococcus aureus N315 assessed as reduction in bacterial load at 4 times MIC after 220 mins by time kill assay (reference value: 10.39 log10CFU/ml); format: functional
[27] = tested on: Staphylococcus aureus; test: Antibacterial activity against methicillin-resistant Staphylococcus aureus N315 after 7 passages; format: functional
[28] = tested on: Aspergillus flavus; test: Antifungal activity against Aspergillus flavus after 24 hrs by two fold serial dilution based spectrophotometric analysis; format: functional
[29] = tested on: Calf thymus DNA; test: Binding affinity to calf thymus DNA assessed as hypochromic shift by UV-Visible spectroscopic method; format: nucleic-acid assay; conditions: Bos taurus
[30] = tested on: Staphylococcus aureus; test: Bactericidal activity against methicillin-resistant Staphylococcus aureus N315 assessed as reduction in bacterial load at 4 times MIC after 270 mins by time kill assay (reference value: 10.26 log10CFU/ml); format: functional
[31] = tested on: Staphylococcus aureus; test: Antibacterial activity against methicillin-resistant Staphylococcus aureus N315 after 4 passages; format: functional
[32] = tested on: Staphylococcus aureus; test: Antibacterial activity against methicillin-resistant Staphylococcus aureus N315 after 16 passages; format: functional, organism-based
[33] = tested on: Staphylococcus aureus; test: Bactericidal activity against methicillin-resistant Staphylococcus aureus N315 assessed as reduction in bacterial load at 4 times MIC after 180 mins by time kill assay (reference value: 8.63 log10CFU/ml); format: functional
[34] = tested on: Cyberlindnera jadinii; test: Antifungal activity against Candida utilis after 24 hrs by two fold serial dilution based spectrophotometric analysis; format: functional; conditions: Williopsis jadinii
[35] = tested on: Bacillus; test: Antibacterial activity against Bacillus proteus ATCC 13315 after 24 hrs by micro broth dilution method; format: functional; conditions: ATCC 13315, 24 h
[36] = tested on: Saccharomyces cerevisiae; test: Antifungal activity against Beer yeast after 24 hrs by two fold serial dilution based spectrophotometric analysis; format: functional
[37] = tested on: Staphylococcus aureus; test: Bactericidal activity against methicillin-resistant Staphylococcus aureus N315 assessed as reduction in bacterial load at 4 times MIC up to 1 hr by time kill assay; format: functional
[38] = tested on: Staphylococcus aureus; test: Antibacterial activity against methicillin-resistant Staphylococcus aureus N315 after 6 passages; format: functional
[39] = tested on: Calf thymus DNA; test: Binding affinity to calf thymus DNA assessed as hypsochromic shift by UV-Visible spectroscopic method; format: nucleic-acid assay; conditions: Bos taurus

Compound: Cc1ncc([N+](=O)[O-])n1CCCOCc1c(-c2ccccc2)nc2sc3ccccc3n12
- MIC [1]: 4 µg/mL (≈ 8.94 µM)
- Activity [2]: 1.74 log10CFU/ml
- Activity [3]: Active
- MIC [4]: 4 µg/mL (≈ 8.94 µM)
- Ratio [5]: 4 - 8
- MIC [6]: 16 µg/mL (≈ 35.8 µM)
- MIC [7]: 13 µM (≈ 5.82 µg/mL)
- MIC [8]: 32 µg/mL (≈ 71.5 µM)
- Ratio [9]: 4 - 8
- MIC [10]: 1 µg/mL (≈ 2.23 µM)
- Activity [11]: 3.29 log10CFU/ml
- MIC [12]: 4 µg/mL (≈ 8.94 µM)
- inhibition [13]: Active
- MIC [14]: 13 µM (≈ 5.82 µg/mL)
- MIC [15]: 4 µg/mL (≈ 8.94 µM)
- Activity [16]: 5.77 log10CFU/ml
- MIC [17]: 15 µM (≈ 6.71 µg/mL)
- MIC [18]: 2 µg/mL (≈ 4.47 µM)
- MIC [19]: 8 µg/mL (≈ 17.9 µM)
- Activity [20]: 1.6 log10CFU/ml
- Activity [21]: 1.98 log10CFU/ml
- MIC [22]: 14 µM (≈ 6.27 µg/mL)
- MIC [23]: 15 µM (≈ 6.71 µg/mL)
- MIC [24]: 2 µg/mL (≈ 4.47 µM)
- MIC [25]: 2 µg/mL (≈ 4.47 µM)
- Activity [26]: 1.66 log10CFU/ml
- MIC [27]: 15 µM (≈ 6.71 µg/mL)
- MIC [28]: 8 µg/mL (≈ 17.9 µM)
- Activity [29]: Active
- Activity [30]: 1.81 log10CFU/ml
- MIC [31]: 16 µM (≈ 7.16 µg/mL)
- Activity [32]: Active
- Activity [33]: 1.81 log10CFU/ml
- MIC [34]: 32 µg/mL (≈ 71.5 µM)
- MIC [35]: 8 µg/mL (≈ 17.9 µM)
- MIC [36]: 256 µg/mL (≈ 572 µM)
- Activity [37]: >3 log10CFU/ml
- MIC [38]: 15 µM (≈ 6.71 µg/mL)
- Activity [39]: Dose-dependent effect
